Assay results taken from ChEMBL document CHEMBL5649169 (ChemMedChem, 2018).

Key:
Ephrin type-A receptor 7 = Ephrin type-A receptor 7 (Homo sapiens, UniProt Q15375); assay: Inhibition of Nano Luc-fused full length C-terminal EPHA7 (unknown origin) expressed in HEK293T cells using NanoGlo as substrate incubated for 2 hrs in presence of tracer by NanoBRET assay; format: cell-based
[1] = molecular target: ATP-citrate synthase (Homo sapiens) (UniProt P53396); further: assay method not described here
[2] = molecular target: Alkyldihydroxyacetonephosphate synthase, peroxisomal (Homo sapiens) (UniProt O00116); further: assay method not described here
[3] = molecular target: RAC-gamma serine/threonine-protein kinase (Homo sapiens) (UniProt Q9Y243); further: assay method not described here
[4] = molecular target: AP-3 complex subunit beta-1 (Homo sapiens) (UniProt O00203); further: assay method not described here
[5] = molecular target: ATP synthase F(0) complex subunit e, mitochondrial (Homo sapiens) (UniProt P56385); further: assay method not described here
[6] = molecular target: G2/mitotic-specific cyclin-B1 (Homo sapiens) (UniProt P14635); further: assay method not described here
[7] = molecular target: Conserved oligomeric Golgi complex subunit 8 (Homo sapiens) (UniProt Q96MW5); further: assay method not described here
[8] = molecular target: Eukaryotic translation initiation factor 3 subunit E (Homo sapiens) (UniProt P60228); further: assay method not described here
[9] = molecular target: Casein kinase I isoform gamma-1 (Homo sapiens) (UniProt Q9HCP0); further: assay method not described here
[10] = molecular target: Cystatin-B (Homo sapiens) (UniProt P04080); further: assay method not described here
[11] = molecular target: Aspartate--tRNA ligase, cytoplasmic (Homo sapiens) (UniProt P14868); further: assay method not described here
[12] = molecular target: Dual specificity tyrosine-phosphorylation-regulated kinase 1A (Homo sapiens) (UniProt Q13627); further: assay method not described here
[13] = molecular target: Protein FAM83B (Homo sapiens) (UniProt Q5T0W9); further: assay method not described here
[14] = molecular target: Ketosamine-3-kinase (Homo sapiens) (UniProt Q9HA64); further: assay method not described here
[15] = molecular target: Glucose-6-phosphate 1-dehydrogenase (Homo sapiens) (UniProt P11413); further: assay method not described here
[16] = molecular target: GTPase-activating protein and VPS9 domain-containing protein 1 (Homo sapiens) (UniProt Q14C86); further: assay method not described here
[17] = molecular target: Glia maturation factor gamma (Homo sapiens) (UniProt O60234); further: assay method not described here
[18] = molecular target: Heat shock protein HSP 90-alpha (Homo sapiens) (UniProt P07900); further: assay method not described here
[19] = molecular target: Interleukin enhancer-binding factor 3 (Homo sapiens) (UniProt Q12906); further: assay method not described here
[20] = molecular target: Tyrosine-protein kinase Lyn (Homo sapiens) (UniProt P07948); further: assay method not described here
[21] = molecular target: Mitogen-activated protein kinase kinase kinase 1 (Homo sapiens) (UniProt Q13233); further: assay method not described here
[22] = molecular target: Transport and Golgi organization protein 1 homolog (Homo sapiens) (UniProt Q5JRA6); further: assay method not described here
Nucleolin (Homo sapiens) = Nucleolin (Homo sapiens) (UniProt P19338); further: assay method not described here
[23] = molecular target: Serine/threonine-protein kinase Nek2 (Homo sapiens) (UniProt P51955); further: assay method not described here
[24] = molecular target: 28S rRNA (cytosine(4447)-C(5))-methyltransferase (Homo sapiens) (UniProt P46087); further: assay method not described here
[25] = molecular target: Nucleolar protein 56 (Homo sapiens) (UniProt O00567); further: assay method not described here
[26] = molecular target: Puromycin-sensitive aminopeptidase (Homo sapiens) (UniProt P55786); further: assay method not described here
[27] = molecular target: Oligosaccharyltransferase complex subunit OSTC (Homo sapiens) (UniProt Q9NRP0); further: assay method not described here
[28] = molecular target: Phosphorylase kinase beta subunit (Homo sapiens) (UniProt Q93100); further: assay method not described here
[29] = molecular target: cAMP-dependent protein kinase catalytic subunit gamma (Homo sapiens) (UniProt P22612); further: assay method not described here
[30] = molecular target: 26S proteasome non-ATPase regulatory subunit 8 (Homo sapiens) (UniProt P48556); further: assay method not described here
[31] = molecular target: Large ribosomal subunit protein eL30 (Homo sapiens) (UniProt P62888); further: assay method not described here
[32] = molecular target: Large ribosomal subunit protein eL38 (Homo sapiens) (UniProt P63173); further: assay method not described here
[33] = molecular target: Small ribosomal subunit protein eS25 (Homo sapiens) (UniProt P62851); further: assay method not described here
[34] = molecular target: Small ribosomal subunit protein uS3 (Homo sapiens) (UniProt P23396); further: assay method not described here
[35] = molecular target: Protein S100-A6 (Homo sapiens) (UniProt P06703); further: assay method not described here
[36] = molecular target: S-phase kinase-associated protein 2 (Homo sapiens) (UniProt Q13309); further: assay method not described here
[37] = molecular target: Neutral amino acid transporter B(0) (Homo sapiens) (UniProt Q15758); further: assay method not described here
[38] = molecular target: High affinity cationic amino acid transporter 1 (Homo sapiens) (UniProt P30825); further: assay method not described here
[39] = molecular target: Serine/threonine-protein kinase TAO1 (Homo sapiens) (UniProt Q7L7X3); further: assay method not described here
[40] = molecular target: TANK-binding kinase 1-binding protein 1 (Homo sapiens) (UniProt A7MCY6); further: assay method not described here
[41] = molecular target: TGF-beta receptor type-2 (Homo sapiens) (UniProt P37173); further: assay method not described here
[42] = molecular target: Ubiquitin-associated protein 2-like (Homo sapiens) (UniProt Q14157); further: assay method not described here
Wherever ED50 is given: assay method not described here.

Chain of Casein kinase I isoform gamma-1 (Homo sapiens) (Q9HCP0 whole entry, looked up, canonical isoform): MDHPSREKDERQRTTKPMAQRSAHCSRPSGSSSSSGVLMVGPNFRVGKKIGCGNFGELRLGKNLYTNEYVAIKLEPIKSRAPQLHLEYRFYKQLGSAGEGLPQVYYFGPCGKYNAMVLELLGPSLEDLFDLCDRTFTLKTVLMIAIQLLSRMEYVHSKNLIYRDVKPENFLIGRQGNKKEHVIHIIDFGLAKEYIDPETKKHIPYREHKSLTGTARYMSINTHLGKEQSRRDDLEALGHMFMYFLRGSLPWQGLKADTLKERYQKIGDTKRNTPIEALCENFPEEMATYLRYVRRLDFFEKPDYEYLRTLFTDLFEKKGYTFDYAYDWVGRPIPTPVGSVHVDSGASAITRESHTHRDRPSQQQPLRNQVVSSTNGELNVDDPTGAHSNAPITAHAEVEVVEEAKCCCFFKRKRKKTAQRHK
Chain of Phosphorylase kinase beta subunit (Homo sapiens) (Q93100 whole entry): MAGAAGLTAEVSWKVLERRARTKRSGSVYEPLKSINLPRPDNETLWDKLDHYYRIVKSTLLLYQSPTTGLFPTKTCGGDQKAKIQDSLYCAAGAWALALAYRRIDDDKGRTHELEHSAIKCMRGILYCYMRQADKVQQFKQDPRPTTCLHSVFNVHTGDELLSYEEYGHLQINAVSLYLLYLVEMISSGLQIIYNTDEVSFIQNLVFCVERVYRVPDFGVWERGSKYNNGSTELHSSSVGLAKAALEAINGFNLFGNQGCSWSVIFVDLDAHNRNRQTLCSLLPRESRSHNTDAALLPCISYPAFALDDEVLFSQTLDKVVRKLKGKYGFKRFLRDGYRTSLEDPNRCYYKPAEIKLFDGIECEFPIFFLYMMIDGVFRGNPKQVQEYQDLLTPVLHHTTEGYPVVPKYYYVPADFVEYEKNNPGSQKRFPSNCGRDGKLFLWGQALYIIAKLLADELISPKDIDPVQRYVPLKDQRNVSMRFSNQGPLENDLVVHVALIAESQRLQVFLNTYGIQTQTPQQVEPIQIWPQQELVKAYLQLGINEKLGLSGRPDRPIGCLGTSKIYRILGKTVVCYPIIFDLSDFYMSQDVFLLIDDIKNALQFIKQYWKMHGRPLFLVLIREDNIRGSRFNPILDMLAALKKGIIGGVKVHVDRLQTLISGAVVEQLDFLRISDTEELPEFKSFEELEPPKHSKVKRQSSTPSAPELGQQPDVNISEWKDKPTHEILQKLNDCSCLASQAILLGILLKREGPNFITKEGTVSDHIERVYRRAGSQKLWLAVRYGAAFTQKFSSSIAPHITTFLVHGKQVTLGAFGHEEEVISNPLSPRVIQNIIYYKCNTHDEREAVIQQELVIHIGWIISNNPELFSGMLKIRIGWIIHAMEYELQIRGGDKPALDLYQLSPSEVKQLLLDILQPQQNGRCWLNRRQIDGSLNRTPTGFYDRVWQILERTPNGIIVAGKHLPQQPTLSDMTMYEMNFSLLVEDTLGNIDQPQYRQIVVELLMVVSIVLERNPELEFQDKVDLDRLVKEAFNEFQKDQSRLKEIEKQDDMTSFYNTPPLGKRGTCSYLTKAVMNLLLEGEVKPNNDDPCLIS
Chain of Ubiquitin-associated protein 2-like (Homo sapiens) (Q14157 whole entry): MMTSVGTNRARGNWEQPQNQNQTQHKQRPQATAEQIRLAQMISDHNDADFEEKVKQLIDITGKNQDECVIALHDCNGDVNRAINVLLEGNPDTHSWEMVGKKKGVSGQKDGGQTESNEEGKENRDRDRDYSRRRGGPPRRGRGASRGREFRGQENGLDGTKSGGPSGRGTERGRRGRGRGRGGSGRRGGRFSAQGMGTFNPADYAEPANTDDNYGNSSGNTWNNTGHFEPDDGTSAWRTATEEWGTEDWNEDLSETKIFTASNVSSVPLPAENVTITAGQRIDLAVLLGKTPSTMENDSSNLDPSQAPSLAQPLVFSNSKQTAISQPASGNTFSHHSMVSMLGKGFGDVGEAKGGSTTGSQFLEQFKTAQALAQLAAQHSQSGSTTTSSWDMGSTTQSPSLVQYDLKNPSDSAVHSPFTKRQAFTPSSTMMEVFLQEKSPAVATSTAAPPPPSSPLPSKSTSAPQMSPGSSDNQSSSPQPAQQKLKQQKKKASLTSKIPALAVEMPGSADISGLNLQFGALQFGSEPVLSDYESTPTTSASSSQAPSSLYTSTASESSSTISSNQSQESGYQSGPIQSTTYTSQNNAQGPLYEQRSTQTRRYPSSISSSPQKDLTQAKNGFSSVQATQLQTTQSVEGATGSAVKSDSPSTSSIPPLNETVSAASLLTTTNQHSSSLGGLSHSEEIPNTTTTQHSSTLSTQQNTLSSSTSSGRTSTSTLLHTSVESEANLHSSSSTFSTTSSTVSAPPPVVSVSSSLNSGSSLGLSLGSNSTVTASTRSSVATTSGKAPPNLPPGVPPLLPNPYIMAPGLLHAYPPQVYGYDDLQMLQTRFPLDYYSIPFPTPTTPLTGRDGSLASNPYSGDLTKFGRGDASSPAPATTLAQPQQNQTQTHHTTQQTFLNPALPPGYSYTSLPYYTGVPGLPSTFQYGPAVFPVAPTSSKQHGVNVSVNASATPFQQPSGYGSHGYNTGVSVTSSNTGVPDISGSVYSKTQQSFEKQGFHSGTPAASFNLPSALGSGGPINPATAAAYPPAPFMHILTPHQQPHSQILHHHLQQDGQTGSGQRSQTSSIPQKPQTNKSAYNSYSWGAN
Chain of Transport and Golgi organization protein 1 homolog (Homo sapiens) (Q5JRA6 whole entry): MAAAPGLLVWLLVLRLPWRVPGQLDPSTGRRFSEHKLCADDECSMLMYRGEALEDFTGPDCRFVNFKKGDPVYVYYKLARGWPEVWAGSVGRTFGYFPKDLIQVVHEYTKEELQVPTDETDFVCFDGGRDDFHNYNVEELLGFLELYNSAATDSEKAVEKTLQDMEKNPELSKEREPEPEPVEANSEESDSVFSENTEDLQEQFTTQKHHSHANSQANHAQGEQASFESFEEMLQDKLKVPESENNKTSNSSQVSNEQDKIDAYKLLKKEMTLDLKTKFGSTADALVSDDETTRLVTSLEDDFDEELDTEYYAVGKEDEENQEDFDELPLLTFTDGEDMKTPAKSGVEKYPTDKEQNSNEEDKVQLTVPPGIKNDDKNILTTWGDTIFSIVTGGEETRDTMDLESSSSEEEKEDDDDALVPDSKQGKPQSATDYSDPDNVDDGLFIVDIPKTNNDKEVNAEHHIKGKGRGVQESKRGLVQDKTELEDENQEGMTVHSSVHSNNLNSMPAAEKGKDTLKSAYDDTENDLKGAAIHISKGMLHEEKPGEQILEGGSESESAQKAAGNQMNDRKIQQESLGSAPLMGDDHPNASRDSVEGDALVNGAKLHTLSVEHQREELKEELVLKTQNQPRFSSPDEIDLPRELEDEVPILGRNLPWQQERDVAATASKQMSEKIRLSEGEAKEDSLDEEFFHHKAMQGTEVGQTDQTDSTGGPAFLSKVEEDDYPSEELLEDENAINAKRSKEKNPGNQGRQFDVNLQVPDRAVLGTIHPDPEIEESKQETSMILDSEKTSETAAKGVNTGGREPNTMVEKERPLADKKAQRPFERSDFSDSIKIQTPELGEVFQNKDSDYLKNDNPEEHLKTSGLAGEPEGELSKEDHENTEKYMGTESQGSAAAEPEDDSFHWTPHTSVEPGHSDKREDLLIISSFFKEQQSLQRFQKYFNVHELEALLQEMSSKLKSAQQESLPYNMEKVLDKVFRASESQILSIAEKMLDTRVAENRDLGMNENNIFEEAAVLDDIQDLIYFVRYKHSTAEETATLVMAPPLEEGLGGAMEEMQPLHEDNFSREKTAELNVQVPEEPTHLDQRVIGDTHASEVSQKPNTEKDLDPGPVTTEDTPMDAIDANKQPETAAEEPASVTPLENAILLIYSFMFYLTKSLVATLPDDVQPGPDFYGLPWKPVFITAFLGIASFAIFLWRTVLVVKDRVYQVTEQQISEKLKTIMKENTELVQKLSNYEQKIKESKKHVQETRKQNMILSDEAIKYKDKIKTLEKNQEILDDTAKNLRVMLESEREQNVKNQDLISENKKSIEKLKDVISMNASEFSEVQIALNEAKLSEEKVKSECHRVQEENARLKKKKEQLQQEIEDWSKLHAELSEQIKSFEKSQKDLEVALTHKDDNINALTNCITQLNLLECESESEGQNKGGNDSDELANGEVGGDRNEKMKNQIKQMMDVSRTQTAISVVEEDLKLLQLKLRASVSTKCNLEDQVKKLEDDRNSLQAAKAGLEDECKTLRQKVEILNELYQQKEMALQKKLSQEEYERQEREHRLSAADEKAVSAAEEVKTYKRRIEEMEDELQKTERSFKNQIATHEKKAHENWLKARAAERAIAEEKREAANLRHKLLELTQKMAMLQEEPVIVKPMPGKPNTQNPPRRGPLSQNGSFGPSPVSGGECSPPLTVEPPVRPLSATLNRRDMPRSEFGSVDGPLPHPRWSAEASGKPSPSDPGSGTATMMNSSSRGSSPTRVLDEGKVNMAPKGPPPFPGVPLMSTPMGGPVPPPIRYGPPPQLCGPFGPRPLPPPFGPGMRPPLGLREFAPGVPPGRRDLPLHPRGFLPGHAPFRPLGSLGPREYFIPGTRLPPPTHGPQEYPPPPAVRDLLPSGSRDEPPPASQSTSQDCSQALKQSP
Chain of G2/mitotic-specific cyclin-B1 (Homo sapiens) (P14635 whole entry): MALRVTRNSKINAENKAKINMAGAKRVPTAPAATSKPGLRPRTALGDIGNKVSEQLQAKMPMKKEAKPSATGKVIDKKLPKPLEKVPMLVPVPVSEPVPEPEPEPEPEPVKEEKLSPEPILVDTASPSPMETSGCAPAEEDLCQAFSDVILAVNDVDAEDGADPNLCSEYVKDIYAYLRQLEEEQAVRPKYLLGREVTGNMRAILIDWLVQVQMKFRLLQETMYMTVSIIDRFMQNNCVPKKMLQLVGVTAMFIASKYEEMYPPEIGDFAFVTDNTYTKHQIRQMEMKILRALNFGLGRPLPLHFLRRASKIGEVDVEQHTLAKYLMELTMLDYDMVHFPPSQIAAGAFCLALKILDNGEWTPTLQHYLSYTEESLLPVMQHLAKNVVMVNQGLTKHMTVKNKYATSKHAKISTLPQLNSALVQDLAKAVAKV
Chain of ATP synthase F(0) complex subunit e, mitochondrial (Homo sapiens) (P56385 whole entry, one chain of several): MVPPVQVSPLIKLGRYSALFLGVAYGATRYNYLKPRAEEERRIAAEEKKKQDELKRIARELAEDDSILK

`Cc1ccc(C(=O)Nc2cccc(C(F)(F)F)c2)cc1Nc1nc(-c2cccnc2)nc2c1cnn2C` was tested, and the IC50 (Ephrin type-A receptor 7) was > 50 µM, the ED50 [1] was 12.3 µM and the ED50 [2] was 0.0016 µM. For the same molecule, the ED50 [3] was 0.0059 µM, the ED50 [4] was 0.558 µM and the ED50 [5] was 20 µM. It also gave an ED50 [6] of 0.205 µM, an ED50 [7] of 0.00417 µM and an ED50 [8] of 24.5 µM. The ED50 [9] was 0.27 µM, the ED50 [10] was 6.95 µM and the ED50 [11] was 0.0564 µM. The ED50 [12] was 0.102 µM, the ED50 [13] was 1380 µM and the ED50 [14] was 277 µM. It also gave an ED50 [15] of 81.4 µM, an ED50 [16] of 7.36 µM and an ED50 [17] of 70.9 µM. The ED50 (Homo sapiens) was 3.11 µM, the ED50 [18] was 0.173 µM and the ED50 [19] was 9.39 µM. For the same molecule, the ED50 [20] was 1.34 µM, the ED50 [21] was 6.12 µM and the ED50 [22] was 3.64 µM. The ED50 (Nucleolin (Homo sapiens)) was 2.79 µM, the ED50 [23] was 0.011 µM and the ED50 [24] was 0.000204 µM. For the same molecule, the ED50 [25] was 13.1 µM, the ED50 [26] was 0.0863 µM and the ED50 [27] was 15.6 µM. For the same molecule, the ED50 [28] was 12.8 µM, the ED50 [29] was 1.23 µM and the ED50 [30] was 8.9 µM. It also gave an ED50 [31] of 0.0257 µM, an ED50 [32] of 8.36 µM and an ED50 [33] of 2.64 µM. For the same molecule, the ED50 [34] was 0.00386 µM, the ED50 [35] was 0.118 µM and the ED50 [36] was 4.82 µM. It also gave an ED50 [37] of 0.0263 µM, an ED50 [38] of 4.06 µM and an ED50 [39] of 11.2 µM. It also gave an ED50 [40] of 11.4 µM, an ED50 [41] of 35.5 µM and an ED50 [42] of 13.3 µM.
`Cc1ccc(C(=O)Nc2cccc(C(F)(F)F)c2)cc1Nc1nc(-c2cccnc2)nc2nn(C)cc12` was tested, and the IC50 (Ephrin type-A receptor 7) was > 50 µM, the ED50 [1] was 21.4 µM and the ED50 [2] was 0.486 µM. For the same molecule, the ED50 [3] was 3.14 µM, the ED50 [4] was 0.049 µM and the ED50 [5] was 0.531 µM. The ED50 [6] was 5.61 µM, the ED50 [7] was 0.819 µM and the ED50 [8] was 0.512 µM. The ED50 [9] was 3.41 µM, the ED50 [10] was 12.8 µM and the ED50 [11] was 6.72 µM. For the same molecule, the ED50 [12] was 12.5 µM, the ED50 [13] was 0.254 µM and the ED50 [14] was 0.0183 µM. It also gave an ED50 [15] of 0.107 µM, an ED50 [16] of 9.47 µM and an ED50 [17] of 0.00291 µM. For the same molecule, the ED50 (Homo sapiens) was 0.00782 µM, the ED50 [18] was 33.1 µM and the ED50 [19] was 0.0174 µM. The ED50 [20] was 60.5 µM, the ED50 [21] was 3.34 µM and the ED50 [22] was 120 µM. It also gave an ED50 (Nucleolin (Homo sapiens)) of 30.3 µM, an ED50 [23] of 0.324 µM and an ED50 [24] of 0.366 µM. The ED50 [25] was 4 µM, the ED50 [26] was 0.0907 µM and the ED50 [27] was 1.15 µM. The ED50 [28] was 0.384 µM, the ED50 [29] was 0.137 µM and the ED50 [30] was 0.0341 µM. It also gave an ED50 [31] of 1.58 µM, an ED50 [32] of 0.0274 µM and an ED50 [33] of 0.2 µM. It also gave an ED50 [34] of 0.0406 µM, an ED50 [35] of 11.5 µM and an ED50 [36] of 0.00261 µM. For the same molecule, the ED50 [37] was 0.032 µM, the ED50 [38] was 1.68 µM and the ED50 [39] was 0.0178 µM. For the same molecule, the ED50 [40] was 0.06 µM, the ED50 [41] was 0.00886 µM and the ED50 [42] was 14.3 µM.
